Measured values published in US8618067B2, “L-sugar colon cleansing agent and uses thereof” (Aptalis Pharma US, Inc., priority 2009, dated 2013).
Several values for one entry are separate records, joined by “and”; a condition that tells them apart may be missing. Identical values can stand only once.

Tests used:
[1] = Dissolution of solid L-glucose forms in water with consumer-like stirring; type: physicochemical; conditions: for Time of stirring until sample fully dissolved: 53 g in 240 mL doubly distilled water
Procedure: Each sample comprises approximately an equivalent amount of L-glucose on a weight basis. Carefully, to avoid agitation and mixing, doubly distilled water (240 mL) is added to each beaker. In one example, the solution is stirred immediately after addition of water. […] The stiffing was conducted in a manner duplicating the way a consumer is expected to stir a sample prior to use.

colon [2] = assay: Example 3: open-label, 2-site dose-escalating split-dose study of L-glucose before colonoscopy (GPA and RSS); type: in vivo, human
Source text: Applicants have relied upon a combination of a categorical, 4-point scale and a numerical, segmental scoring system to assess bowel cleansing quality (Balaban et al. “Low volume bowel preparation for colonoscopy: randomized, endoscopist-blinded trial of liquid sodium phosphate versus tablet sodium phosphate,” Am J Gastroenterol 98:827-32, 2003). The basic 4-point scale, known as the Global Preparation Assessment (GPA), is essentially the same as the original scale used in the first randomized controlled trial of PHOSPHO-SODA™ as a bowel cleansing agent published in 1990 by Vanner, et al. (“A randomized prospective trial comparing oral sodium phosphate with standard polyethylene glycol-based lavage solution (Golytely) in the preparation of patients for colonoscopy,” Am J Gastroenterol 85:422-7, 1990). The numerical scoring system, known as the Residual Stool Score (RSS), is a continuously variable, averaged segmental scoring instrument that assesses both the amount and consistency of residual stool before suctioning (a measure of the cathartic activity of the bowel cleansing regimen) as well as the percent of the bowel wall seen after washing and cleansing (a measure of the ultimate endpoint for bowel preparation success). The two scales are shown below.
(§1) Global Preparation Assessment
(§2) Excellent=clean colon or small volume of clear liquid
(§3) Good=moderate to large volume of clear to semiclear liquid
(§4) Fair=some semisolid stool suctioned or washed away
(§5) Poor=semisolid or solid stool unable to be suctioned or washed away
This open-label, 2-site study employed a dose-escalating design using 3 split doses of L-glucose (24 g/24 g, 36 g/36 g, and 48 g/48 g). The doses were administered the night before and the morning of a scheduled colonoscopy. The study was conducted in Phase I facilities to control for administration of L-glucose and adherence to the dietary and hydration regimen.
Three dose cohorts of 24 subjects were evenly divided between males and females for each cohort. Subjects who were scheduled to undergo an elective colonoscopy, who met the study entrance criteria, and who gave their consent to participate in the study were enrolled. […] Each subject observed a strict diet and hydration regimen as part of the study medication administration.
The site pharmacist prepared the L-glucose preparation based on the study medication preparation manual provided. Each subject, regardless of dose cohort, received the dose in 8 ounces of water, which was to be consumed within a 10-minute period. Dose cohorts proceeded in a dose-escalating fashion starting with the lowest dose (24 g/24 g) and escalated according to a dose escalation decision tree.
The physician performing the colonoscopy utilized Applicant's GPA scale to evaluate the quality of bowel preparation as before suctioning and washing.
The Residual Stool Score (RSS) described above was also used to assess bowel cleansing in each of the 5 segments of the bowel (rectum, descending colon, transverse colon, ascending colon, and cecum). As noted, assessments included the amount of stool present, the consistency of the stool, and the estimated percentage of the bowel wall visualized in each segment.
For reasons of inadequate bowel preparation, sections of the bowel that were not directly examined during colonoscopy were rated as “poor” on all three measures listed previously.
A total of 24 subjects were enrolled into each of the three dose cohorts. All 72 subjects were included in the intent-to-treat (ITT) and safety populations.

[3] = cited from earlier work
[4] = cited from earlier work; remark: listed apart in the source
colon [5] = assay: Comparative Example 2: randomized, single-blind study of L-glucose as bowel preparation before colonoscopy (GPA scale); type: in vivo, human
Procedure: as §1, §2, §3, §4, §5
A randomized, single-blind study designed to determine the clinical effectiveness of L-glucose as a bowel preparation before colonoscopy was performed. Three dose regimens were evaluated: 24 g in the evening only, 30 g in the evening only, and 24 g in the evening followed by 12 g in the morning (36 g total). Here, Applicant's GPA scale described herein was used to evaluate the preparations. […] Clinical efficacy (defined as a combination of “excellent” and “good” assessments) for the split-dose schedule was 19/27 (70%), as compared to 7/31 (23%) in the single-dose schedule (p<0.001).
As noted above in the description of Applicant's GPA scale, the criteria for determining whether a preparation was deemed “excellent” or “good” was respectively defined as “clean colon or small volume of clear liquid” or “moderate to large volume of clear to semi-clear liquid.” These criteria are more stringent than the rating system used by Raymer et al. discussed supra since Raymer's “excellent” and “good” ratings were respectively defined as “no more than small bits of adherent fecal fluid” and “small amounts of feces or fluid not interfering with the examination.” Thus, Raymer's “excellent” rating would likely not qualify as even a “good” rating in Applicant's GPA scale.

colon [6] = assay: Open-label, historically controlled, single-dose study of L-glucose as colon-cleansing agent before colonoscopy (Raymer et al.); type: in vivo, human; conditions: 24-g single dose; equivalent of the 80% success rating
Procedure: For example, an open-label, historically controlled, single-dose study of a 24-g dose of L-glucose was conducted to determine the safety and effectiveness of L-glucose as a colon-cleansing agent before colonoscopy (Raymer et al., “An open-label trial of L-glucose as a colon-cleansing agent before colonoscopy,” Gastrointest Endosc 58(1):30-5, 2003).

colon [7] = assay: Comparative Example 1: multicenter, double-blind, dose-range-finding study of L-glucose as colon-cleansing agent before colonoscopy; type: in vivo, human; conditions: single doses 12 g, 16 g, 20 g, 24 g; scale of Hsu et al.
Procedure: A multicenter, double-blind, dose-range-finding study to evaluate the effectiveness and safety of L-glucose as a colon-cleansing agent before colonoscopy was conducted. Doses used in this study were 12 g, 16 g, 20 g, and 24 g. The assessment of the preparations was based on the scale used in Hsu et al., “Meta-analysis and cost comparison of polyethylene glycol lavage versus sodium phosphate for colonoscopy preparation,” Gastrointestinal Endoscopy 48(3):276-282, 1998, wherein small bits of fecal material in the colon were allowed in an “Excellent” score.

colon [8] = conditions: 24-g single dose; Raymer scale; cited from earlier work
[9] = 48 g/48 g dose compared with lower split doses

Which “Observations: clusters or clumping of solid” value ([1]; 5 min. delay) does the source give for `O.O=C[C@@H](O)[C@H](O)[C@@H](O)[C@@H](O)CO` [L-glucose monohydrate] here?
Its value is “Several clusters of solid at 1 min. Final solution”.

And the “Time of stirring until sample fully dissolved” value ([1]; 5 min. delay before stirring, listed as L- glucose monohydrate^1, monohydrate)?
Its value is “Sample fully dissolved after 2.5 min. of stirring”.

And the “Time of stirring until sample fully dissolved” value ([1]; 5 min. delay before stirring, listed as L- glucose monohydrate^2, monohydrate)?
The value was “Fully dissolved after 1 min. of stirring. Final”.

And the “Observations: appearance of final solution” value ([1]; 5 min. delay, listed as L- glucose monohydrate^2, monohydrate)?
The value was “solution was clear, colorless and homogeneous”.

And the “Observations: clusters or clumping of solid” value ([1]; No delay)?
Its value is “Several clusters of solid at 1 min. Final solution”.

What about the “Time of stirring until sample fully dissolved” value ([1]; No delay (stirred immediately), listed as L- glucose monohydrate^1, monohydrate) of the same compound?
Its value is “Sample fully dissolved after 2.5 min. of stirring”.

And the “Time of stirring until sample fully dissolved” value ([1]; No delay (stirred immediately), listed as L- glucose monohydrate^2, monohydrate)?
Its value is “Fully dissolved after 2 min. of stirring. Final”.

And the “Observations: appearance of final solution” value ([1]; No delay, listed as L- glucose monohydrate^2, monohydrate)?
The value was “solution was clear, colorless and homogeneous”.

Which results are given for `OC[C@@H]1OC(O)[C@@H](O)[C@H](O)[C@H]1O` (stereo partly drawn) [anhydrous L-glucose, reference compound]?
Observations: clusters or clumping of solid ([1]; 5 min. delay): Material clumped into a hard mass during time; Observations: appearance of final solution ([1]; No delay): stirring. Clear solution results with latent

Which “Subjects with GPA rated Excellent (clean colon or small volume of clear liquid)” value (“Subjects with GPA rated Excellent” below) (colon [2]; 24 g/24 g cohort) does the source give for `O=C[C@@H](O)[C@H](O)[C@@H](O)[C@@H](O)CO` [L-glucose] here?
Its value is 12 (50.0%) subjects (%) and 12 (50.0) subjects (%).

And the “Subjects with GPA rated Fair (some semisolid stool suctioned or washed away)” value (from here on “Subjects with GPA rated Fair”) (colon [2]; 24 g/24 g cohort)?
The value was 5 (20.8) subjects (%).

What about the “Subjects with GPA rated Good (moderate to large volume of clear to semiclear liquid)” value (“Subjects with GPA rated Good” below) (colon [2]; 24 g/24 g cohort) of the same compound?
Its value is 7 (29.2) subjects (%).

And the “Subjects with GPA rated Poor (semisolid or solid stool unable to be suctioned or washed away)” value (colon [2]; 24 g/24 g cohort)?
Its value is 0 (0.0) subjects (%).

What about the “Subjects with GPA rated Excellent” value (colon [2]; 36 g/36 g cohort) of the same compound?
Its value is 14 (58.3%) subjects (%) and 14 (58.3) subjects (%).

What about the “Subjects with GPA rated Fair” value (colon [2]; 36 g/36 g cohort) of the same compound?
The value was 2 (8.3) subjects (%).

What about the “Subjects with GPA rated Good” value (colon [2]; 36 g/36 g cohort) of the same compound?
The value was 7 (29.2) subjects (%).

What about the “Subjects with GPA rated Poor (semisolid or solid stool unable to be suctioned or washed away)” value (colon [2]; 36 g/36 g cohort) of the same compound?
The value was 1 (4.2%) subjects (%) and 1 (4.2) subjects (%).

What about the “Subjects with GPA rated Excellent” value (colon [2]; 48 g/48 g cohort) of the same compound?
Its value is 22 (91.7%) subjects (%) and 22 (91.7) subjects (%).

What about the “Subjects with GPA rated Fair” value (colon [2]; 48 g/48 g cohort) of the same compound?
The value was 1 (4.2) subjects (%).

And the “Subjects with GPA rated Good” value (colon [2]; 48 g/48 g cohort)?
Its value is 1 (4.2) subjects (%).

What about the “Subjects with GPA rated Poor (semisolid or solid stool unable to be suctioned or washed away)” value (colon [2]; 48 g/48 g cohort) of the same compound?
The value was 0 (0.0) subjects (%).

And the “Robustness of bowel cleansing” value (colon [2]; [9])?
The value was “more robust bowel cleansing”.

What about the “Time to the first watery bowel movement” value (colon [2]; [9]) of the same compound?
The value was “shortest time to the first watery bowel movement”.

And the “Subjects who had a complete colonoscopy” value (colon [2]; Site 01, all dose cohorts)?
The value was 30 (96.8%) subjects (%).

What about the “Subjects with GPA rated poor” value (colon [2]; Site 01, all dose cohorts) of the same compound?
The value was 1 (3.2%) subjects (%).

And the “Subjects who had a complete colonoscopy” value (colon [2]; Site 02, all dose cohorts)?
The value was 39 (95.1%) subjects (%).

What about the “Subjects with GPA rated Excellent” value (colon [2]; Total of all cohorts) of the same compound?
The value was 48 (66.7) subjects (%).

What about the “Subjects with GPA rated Fair” value (colon [2]; Total of all cohorts) of the same compound?
The value was 8 (11.1) subjects (%).

What about the “Subjects with GPA rated Good” value (colon [2]; Total of all cohorts) of the same compound?
The value was 15 (20.8) subjects (%).

What about the “Subjects with GPA rated Poor (semisolid or solid stool unable to be suctioned or washed away)” value (colon [2]; Total of all cohorts) of the same compound?
Its value is 1 (1.4) subjects (%).

And the “Subjects who had a complete colonoscopy (endoscopist able to reach the cecum)” value (colon [2]; in each dose cohort (24 g/24 g, 36 g/36 g, 48 g/48 g))?
Its value is 23 (95.8%) subjects (%).

What about the “Effect of food restriction on the metabolism of L-glucose” value ([3]; in vivo) of the same compound?
Its value is “no significant effect”.

What about the “Major route of L-glucose elimination” value ([3]; mice, rats, dogs, rabbits, and monkeys) of the same compound?
The value was “urinary excretion”.

And the “Absorption from the human intestine” value [4]?
Its value is “moderately absorbed”.

And the “Glucose or insulin response after administration” value ([4]; human)?
The value was “No significant glucose or insulin response”.

And the “Lower gastrointestinal symptoms (cramping, gas/flatus), mild” value ([4]; human)?
Its value is “occurred in a majority of subjects”.

What about the “Metabolism by colonic bacteria (breath hydrogen, comparable with in vitro studies)” value ([4]; human) of the same compound?
Its value is “colonic bacteria do not metabolize”.

What about the “Mild upper gastrointestinal symptoms (vomiting, nausea, belching/rifting, bloating)” value ([4]; human) of the same compound?
Its value is “occurred in a minority of subjects”.

And the “Outcome of the evening-only dose arms” value (colon [5]; 24 g and 30 g evening only)?
Its value is “suspended for lack of effectiveness”.

What about the “Changes in laboratory test results” value (colon [5]; in vivo) of the same compound?
The value was “no clinically significant changes”.

What about the “Commonly reported adverse events” value (colon [5]; in vivo) of the same compound?
Its value is “generally absent or mild”.

What about the “Overall tolerance to the bowel preparation” value (colon [5]; in vivo) of the same compound?
The value was “good or very good”.

What about the Failure rating (colon [6]) of the same compound?
The Failure rating was 20%.

What about the “Acceptability as a colonic cleanser” value (colon [7]) of the same compound?
The value was “not acceptable”.

What about the “Subjects with colonoscopy preparation grade of excellent or good” value (colon [8]) of the same compound?
Its value is 80%.
